{
  "source": "paper PMC9889419",
  "about": "(Pharmacological Reports, 2022)",
  "key": {"[1]": {"system": "mice", "assay": "Bicuculline-induced seizures", "format": "in vivo", "conditions": "ip"}, "[2]": {"system": "Frings mice", "assay": "Frings mice sound-induced seizures", "format": "in vivo", "conditions": "ip"}, "[3]": {"system": "mice", "assay": "Picrotoxin-induced seizures", "format": "in vivo", "conditions": "ip"}, "[4]": {"assay": "in vivo", "conditions": "rat, ip"}, "[5]": {"system": "rats", "assay": "Whole body plethysmography", "format": "in vivo", "conditions": "6, 10 and 20 mg/kg ip, 4-h test period", "method": "Whole body plethysmography. The method, which detects the effects of a test substance on airway function, follows that described by Chong et al. and by Hamelmann et al.. Rats were placed individually in a single chamber plethysmograph (Buxco) in which they can move and drink freely. After a habituation period of 150 min, the following parameters were recorded: inspiratory time, expiratory time, peak inspiratory flow, peak expiratory flow, tidal volume, respiratory rate, relaxation time, pause, enhanced pause. All data generated were acquired using specialized EMKA Technologies software (lOX version 1.7.0; ANALYST version 1.49), connected to Buxco plethysmographic equipment. Recordings were taken for 30 min before and for 4 h after administration of the test substance. […] Each time point represented the mean value of a 2-min block (recorded 1 min before and 1 min after each time point). In cases where the data can be considered invalid, for example if recorded during a period of sniffing thereby causing a brief period of increased respiratory frequency, the retained values were those as close as possible to the theoretical time point. Results were expressed as absolute values and as percent changes from initial mean values (T0). […] Each test substance was evaluated at 3 doses (6 mg/kg, 10 mg/kg, and 20 mg/kg), administered ip, and compared with a vehicle control group. […]"}, "[6]": {"assay": "Forced degradation studies (HPLC)", "format": "physicochemical", "method": "HPLC conditions and equipment. The liquid chromatography system HITACHI High-Technologies Corporation (Tokyo, Japan) equipped with a solvent delivery pump (L-2130), a degasser, an autosampler (L-2200), a photodiode array detector (L-2455) and a column oven (L-2350) was used. […] The injection volume was 20 µL. Based on the registered absorption spectrum detection wavelength was selected as 230 nm. The analysis time was 15 min.\nIrradiation conditions. Irradiation was conducted in a climatic chamber KBF-ICH 240 APT.lineTM (Binder GmbH, Tuttlingen, Germany) at 25 °C and 60% humidity using UVA radiation (320–400 nm) with maximum emission at 365 nm. The intensity of radiation was determined using a radiometer type VLX-3 W, Vilber Lourmat, with a CX-365 sensor, to be each time of […]. The distance between the samples and the radiation source was 13 cm.\nDegradation in acidic solution. […] 8 mL of the examined solution was transferred to a glass vial and heated in an oven at 70 °C. The sample volume of 0.5 mL was taken and diluted with 0.5 mL of water. The solution was analyzed three times by HPLC method.\nDegradation in basic solution. […] 4 mL of examined solution was transferred to glass vials of 8 mL capacity and heated in an oven at 70 °C. The volume of 0.5 mL was taken and diluted with 0.5 mL of 0.5 M HCl. The solution was analyzed three times by HPLC method.\nDegradation in phosphate buffer at pH = 7.0. […] The volume of 8 mL of examined solution was transferred to glass vials of 8 mL capacity and stored in a dark place at 25 °C or heated in an oven at 70 °C. The volume of 0.5 mL of solution was taken and diluted with 0.5 mL of water. The solution was analyzed by HPLC method.\nDegradation in the presence of oxidative agent. […] The samples were stored at 25 °C. The volume of 0.5 mL of solution was taken and diluted with 0.5 mL of water. The solution was analyzed three times by HPLC method. […] The volume of 8 mL of examined solution was transferred to glass vials of 8 mL capacity and heated in an oven at 40 °C. The volume of 0.5 mL of solution was taken and diluted with 0.5 mL of water. The solution was analyzed by HPLC method.\nDegradation in the presence of reducing agent. […] 8 mL of the examined solution was transferred to 8 mL glass vials and stored at 25 °C and 40 °C. The volume of 0.5 mL of solution was taken and diluted with 0.5 mL of water. The solution was analyzed three times by HPLC method.\nPhotodegradation under UV irradiation. […] 2 mL of the examined solution was transferred to a quartz Petri-dishes with diameter 4 cm and sealed with parafilm. Dark control samples were prepared in the same way, but they were secured with aluminum foil. The examined samples and the dark control samples were placed in a climatic chamber at […] and humidity 60% and irradiated for 96 h. The volume of 0.5 mL of solution was taken to the vials and the solution was analyzed by HPLC method."}},
  "note": "Where a name gives a salt, the structure may show the parent alone.",
  "data": [
    {"smiles": "CCC(CO)NCCOc1c(C)cccc1Cl", "note": "(stereo not shown) [Compound 4, R,S-2-((2-(2-chloro-6-methylphenoxy)ethyl)amino)butan-1-ol]", "values": [
      {"measurement": "Bicuculline-induced seizures ED50", "setting": "[1]", "value": "> 70", "unit": "mg/kg"},
      {"measurement": "Frings mice sound-induced seizures ED50", "setting": "[2]", "value": "6.05 (4.23–8.45) mg/kg"},
      {"measurement": "Picrotoxin-induced seizures ED50", "setting": "[3]", "value": "> 70", "unit": "mg/kg"}
    ]},
    {"smiles": "CCC(CO)NCCOc1c(C)cccc1Cl", "note": "(stereo not shown) [KM-408, R,S-2-((2-(2-chloro-6-methylphenoxy)ethyl)amino)butan-1-ol hydrochloride]", "values": [
      {"measurement": "TD50", "setting": "[4]", "value": 54.3, "unit": "mg/kg"},
      {"measurement": "effects on respiratory parameters", "setting": "[5]", "value": "No significant effects"},
      {"measurement": "degradation", "setting": "[6]; 0.5 M HCl, 70 °C, 232 h", "value": 1.65, "unit": "%"},
      {"measurement": "degradation", "setting": "[6]; 0.5 M NaOH, 70 °C, 232 h", "value": 2.02, "unit": "%"},
      {"measurement": "degradation", "setting": "[6]; CuSO4, 192 h", "value": 1.65, "unit": "%"},
      {"measurement": "degradation products", "setting": "[6]; H2O2, 168 h", "value": 1.84, "unit": "%"},
      {"measurement": "degradation", "setting": "[6]; phosphate buffer pH 7.0, 25 °C, 240 h", "value": 1.52, "unit": "%"},
      {"measurement": "degradation", "setting": "[6]; phosphate buffer pH 7.0, 70 °C, 168 h", "value": 1.96, "unit": "%"},
      {"measurement": "degradation", "setting": "[6]; photodegradation, 96 h", "value": 1.43, "unit": "%"},
      {"measurement": "degradation", "setting": "[6]; reducing agent, 40 °C, 168 h", "value": 1.50, "unit": "%"}
    ]}
  ]
}
